According to patent US11000033B2, “Ketone or oxime compound, and herbicide” (NISSAN CHEMICAL CORPORATION, priority 2014, dated 2021):

Columns and labels:
Format in all cases: in vivo
Monochoria vaginalis [1] = test: Test Example 1: herbicidal activity, application before weed generation in submerged conditions (symbol C); settings: application herbicide amount 320 g/ha
Summary of the method: (§1)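 Compound emulsion was diluted to a set herbicide amount and applied to the water surface on the sowing day, into submerged (4 cm) alluvial-soil pots sown with mixed weed seeds and transplanted 2.5-leaf rice. Pots were held in a 25–30 °C greenhouse, and weeds were scored 0–5 by herbicidal ratio after 3 weeks.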

Apera spica-venti [2] = test: Test Example 5: herbicidal effect by foliage application, plastic box (symbol L); settings: 320 g/ha, 3 weeks after application
Summary of the method: (§2)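 Sowing in sterilized diluvial soil, 14 days' greenhouse growth at 25° C. to 30° C., then uniform small-sprayer foliar application of aqueous emulsion dilution; plants scored three weeks afterwards.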

Apera spica-venti [3] = test: Test Example 4: herbicidal effect by soil treatment (symbol L); settings: application herbicide amount 320 g/ha
Summary of the method: (§3)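 Seeds were sown in sterilized diluvial soil, covered with about 1.5 cm of soil, and the soil surface was sprayed with a water-diluted emulsion of the compound at a predetermined rate. Plants grew in a greenhouse at 25° C. to 30° C.; effects were scored visually 3 weeks after application.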

Scirpus juncoides [4] = test: Test Example 1: herbicidal activity, application before weed generation in submerged conditions (symbol B); settings: application herbicide amount 320 g/ha
Summary of the method: as §1

Lolium multiflorum Lam. = test: Test Example 5: herbicidal effect by foliage application, plastic box (symbol K); settings: 320 g/ha, 3 weeks after application
Summary of the method: as §2

Monochoria vaginalis [5] = test: Test Example 2: herbicidal activity, application during weed generation in submerged conditions (symbol C); settings: Table 23; application herbicide amount 320 g/ha; grade 0-5 by criteria of Test Example 1
Summary of the method: (§4)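 Steps: fill pots with alluvial soil; add water to 4 cm depth; co-sow the three weeds; grow at 25° C. to 30° C. under glass; at 1–2 leaves, dose the floodwater with diluted emulsion; rate damage visually after 3 weeks.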

rapeseed [6] = test: Test Example 5: effect on crop by foliage application, plastic box (symbol g); settings: 320 g/ha, 3 weeks after application
Summary of the method: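 Box culture: sterile diluvial soil, seeds spot-sown, ~1.5 cm cover, raised under glass at 25–30° C.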

Veronica persica = test: Test Example 5: herbicidal effect by foliage application, plastic box (symbol R); settings: 320 g/ha, 3 weeks after application
Summary of the method: as §2

rapeseed [7] = test: Test Example 4: effect on crop by soil treatment (symbol g); settings: application herbicide amount 320 g/ha
Summary of the method: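 The test used sterilized diluvial soil. Seed was set down in spots and overlaid with about 1.5 cm of soil before growth in a greenhouse kept at 25° C. to 30° C.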

[8] = system: Echinochloa crus-galli var. crus-galli; test: Test Example 4: herbicidal effect by soil treatment (symbol H); settings: application herbicide amount 320 g/ha
Summary of the method: as §3

Scirpus juncoides [9] = test: Test Example 2: herbicidal activity, application during weed generation in submerged conditions (symbol B); settings: Table 23; application herbicide amount 320 g/ha; grade 0-5 by criteria of Test Example 1
Summary of the method: as §4

Amaranthus retroflexus = test: Test Example 5: herbicidal effect by foliage application, plastic box (symbol N); settings: 320 g/ha, 3 weeks after application
Summary of the method: as §2

Setaria viridis = test: Test Example 5: herbicidal effect by foliage application, plastic box (symbol G); settings: 320 g/ha, 3 weeks after application
Summary of the method: as §2

Digitaria ciliaris = test: Test Example 4: herbicidal effect by soil treatment (symbol F); settings: application herbicide amount 320 g/ha
Summary of the method: as §3

Compound	Herbicidal effect grade, C: Monochoria vaginalis (Monochoria vaginalis [1])	L: Apera spica-venti, herbicidal effect grade (Apera spica-venti [2])	Herbicidal effect grade, B: Scirpus juncoides (Scirpus juncoides [4])	K: Lolium multiflorum Lam., herbicidal effect grade (Lolium multiflorum Lam.)	Herbicidal effect grade, C: Monochoria vaginalis (Monochoria vaginalis [5])	g: rapeseed, effect on crop grade (rapeseed [6])	R: Veronica persica, herbicidal effect grade (Veronica persica)	Herbicidal effect grade, B: Scirpus juncoides (Scirpus juncoides [9])	N: Amaranthus retroflexus, herbicidal effect grade (Amaranthus retroflexus)	G: Setaria viridis, herbicidal effect grade (Setaria viridis)	L: Apera spica-venti, herbicidal effect (criteria of Test Example 1) (Apera spica-venti [2])	L: Apera spica-venti, herbicidal effect grade (Apera spica-venti [3])	K: Lolium multiflorum Lam., herbicidal effect (criteria of Test Example 1) (Lolium multiflorum Lam.)	g: rapeseed, effect on crop (criteria of Test Example 1) (rapeseed [6])	R: Veronica persica, herbicidal effect (criteria of Test Example 1) (Veronica persica)	g: rapeseed, effect on crop grade (rapeseed [7])	H: Echinochloa crus-galli var. crus-galli, herbicidal effect grade [8]	N: Amaranthus retroflexus, herbicidal effect (criteria of Test Example 1) (Amaranthus retroflexus)	G: Setaria viridis, herbicidal effect (criteria of Test Example 1) (Setaria viridis)	F: Digitaria ciliaris, herbicidal effect grade (Digitaria ciliaris)	other results
C=CCON=C(C)CC1CC(O)=C(c2c(C)cc(C)cc2C)C1=O (stereo not drawn) [1-018]	2 (Herbicidal ratio of 20% or higher and lower than 40%)	5 (Herbicidal ratio of 90% or more (almost completely withered))	5 (Herbicidal ratio of 90% or more (almost completely withered))	5 (Herbicidal ratio of 90% or more (almost completely withered))	3 (Herbicidal ratio of 40% or higher and lower than 70%)	4 (Herbicidal ratio of 70% or higher and lower than 90%)	4 (Herbicidal ratio of 70% or higher and lower than 90%)	5 (Herbicidal ratio of 90% or more (almost completely withered))	0 (Herbicidal ratio of 5% or lower (almost no effect))	5 (Herbicidal ratio of 90% or more (almost completely withered))	–	–	–	–	–	–	–	–	–	–	L (Apera spica-venti) herbicidal effect grade (Apera spica-venti [3]): 5 (Herbicidal ratio of 90% or more (almost completely withered)); g (rapeseed) effect on crop grade (rapeseed [7]): 4 (Herbicidal ratio of 70% or higher and lower than 90%); H (Echinochloa crus-galli var. crus-galli) herbicidal effect grade [8]: 5 (Herbicidal ratio of 90% or more (almost completely withered)); F (Digitaria ciliaris) herbicidal effect grade (Digitaria ciliaris): 5 (Herbicidal ratio of 90% or more (almost completely withered))
CON=C(C)CC1CC(OC(=O)CCCC(C)=O)=C(c2c(C)cc(-c3ccc(Cl)cc3)cc2C)C1=O (stereo not drawn) [6-080]	2 (Herbicidal ratio of 20% or higher and lower than 40%)	–	1 (Herbicidal ratio of 5% or higher and lower than 20%)	–	3 (Herbicidal ratio of 40% or higher and lower than 70%)	–	–	4 (Herbicidal ratio of 70% or higher and lower than 90%)	–	–	5 (Herbicidal ratio of 90% or more (almost completely withered))	5 (Herbicidal ratio of 90% or more (almost completely withered))	5 (Herbicidal ratio of 90% or more (almost completely withered))	3 (Herbicidal ratio of 40% or higher and lower than 70%)	4 (Herbicidal ratio of 70% or higher and lower than 90%)	0 (Herbicidal ratio of 5% or lower (almost no effect))	5 (Herbicidal ratio of 90% or more (almost completely withered))	0 (Herbicidal ratio of 5% or lower (almost no effect))	5 (Herbicidal ratio of 90% or more (almost completely withered))	5 (Herbicidal ratio of 90% or more (almost completely withered))	–
CON=C(C)CC1CC(OCOC(=O)c2ccccc2)=C(c2c(C)cc(-c3ccc(Cl)cc3)cc2C)C1=O (stereo not drawn) [6-083]	4 (Herbicidal ratio of 70% or higher and lower than 90%)	–	4 (Herbicidal ratio of 70% or higher and lower than 90%)	–	4 (Herbicidal ratio of 70% or higher and lower than 90%)	–	–	3 (Herbicidal ratio of 40% or higher and lower than 70%)	–	–	5 (Herbicidal ratio of 90% or more (almost completely withered))	5 (Herbicidal ratio of 90% or more (almost completely withered))	4 (Herbicidal ratio of 70% or higher and lower than 90%)	4 (Herbicidal ratio of 70% or higher and lower than 90%)	4 (Herbicidal ratio of 70% or higher and lower than 90%)	0 (Herbicidal ratio of 5% or lower (almost no effect))	0 (Herbicidal ratio of 5% or lower (almost no effect))	3 (Herbicidal ratio of 40% or higher and lower than 70%)	5 (Herbicidal ratio of 90% or more (almost completely withered))	5 (Herbicidal ratio of 90% or more (almost completely withered))	–
CON=C(C)C(=NOC)C1CC(O)=C(c2c(C)cc(C)cc2C)C1=O (stereo not drawn) [8-003]	0 (Herbicidal ratio of 5% or lower (almost no effect))	0 (Herbicidal ratio of 5% or lower (almost no effect))	0 (Herbicidal ratio of 5% or lower (almost no effect))	2 (Herbicidal ratio of 20% or higher and lower than 40%)	0 (Herbicidal ratio of 5% or lower (almost no effect))	0 (Herbicidal ratio of 5% or lower (almost no effect))	0 (Herbicidal ratio of 5% or lower (almost no effect))	0 (Herbicidal ratio of 5% or lower (almost no effect))	0 (Herbicidal ratio of 5% or lower (almost no effect))	0 (Herbicidal ratio of 5% or lower (almost no effect))	–	–	–	–	–	–	–	–	–	–	Herbicidal effect grade, L: Apera spica-venti (Apera spica-venti [3]): 0 (Herbicidal ratio of 5% or lower (almost no effect)); Effect on crop grade, g: rapeseed (rapeseed [7]): 0 (Herbicidal ratio of 5% or lower (almost no effect)); Herbicidal effect grade, H: Echinochloa crus-galli var. crus-galli [8]: 0 (Herbicidal ratio of 5% or lower (almost no effect)); Herbicidal effect grade, F: Digitaria ciliaris (Digitaria ciliaris): 0 (Herbicidal ratio of 5% or lower (almost no effect))
CON=C(C)CC1CC(OC(=O)COc2ccccc2)=C(c2c(C)cc(-c3ccc(Cl)cc3)cc2C)C1=O (mixture of isomers) [6-061]	1 (Herbicidal ratio of 5% or higher and lower than 20%)	–	1 (Herbicidal ratio of 5% or higher and lower than 20%)	–	2 (Herbicidal ratio of 20% or higher and lower than 40%)	–	–	4 (Herbicidal ratio of 70% or higher and lower than 90%)	–	–	5 (Herbicidal ratio of 90% or more (almost completely withered))	5 (Herbicidal ratio of 90% or more (almost completely withered))	5 (Herbicidal ratio of 90% or more (almost completely withered))	4 (Herbicidal ratio of 70% or higher and lower than 90%)	4 (Herbicidal ratio of 70% or higher and lower than 90%)	3 (Herbicidal ratio of 40% or higher and lower than 70%)	5 (Herbicidal ratio of 90% or more (almost completely withered))	1 (Herbicidal ratio of 5% or higher and lower than 20%)	5 (Herbicidal ratio of 90% or more (almost completely withered))	5 (Herbicidal ratio of 90% or more (almost completely withered))	–
CON=C(C)CC1CC(O)=C(c2c(C)cc(C(C)=NOC)cc2C)C1=O (stereo not drawn) [6-065]	3 (Herbicidal ratio of 40% or higher and lower than 70%)	–	2 (Herbicidal ratio of 20% or higher and lower than 40%)	–	2 (Herbicidal ratio of 20% or higher and lower than 40%)	–	–	1 (Herbicidal ratio of 5% or higher and lower than 20%)	–	–	5 (Herbicidal ratio of 90% or more (almost completely withered))	5 (Herbicidal ratio of 90% or more (almost completely withered))	5 (Herbicidal ratio of 90% or more (almost completely withered))	4 (Herbicidal ratio of 70% or higher and lower than 90%)	3 (Herbicidal ratio of 40% or higher and lower than 70%)	3 (Herbicidal ratio of 40% or higher and lower than 70%)	5 (Herbicidal ratio of 90% or more (almost completely withered))	0 (Herbicidal ratio of 5% or lower (almost no effect))	5 (Herbicidal ratio of 90% or more (almost completely withered))	5 (Herbicidal ratio of 90% or more (almost completely withered))	–
